The target of one experiment is T1, human LXRβ (Homo sapiens, UniProt P55055).
T1 construct: biotin (biotinylated); made in house; host or cells: E. coli (crude extract)
T1 sequence (P55055 1-460): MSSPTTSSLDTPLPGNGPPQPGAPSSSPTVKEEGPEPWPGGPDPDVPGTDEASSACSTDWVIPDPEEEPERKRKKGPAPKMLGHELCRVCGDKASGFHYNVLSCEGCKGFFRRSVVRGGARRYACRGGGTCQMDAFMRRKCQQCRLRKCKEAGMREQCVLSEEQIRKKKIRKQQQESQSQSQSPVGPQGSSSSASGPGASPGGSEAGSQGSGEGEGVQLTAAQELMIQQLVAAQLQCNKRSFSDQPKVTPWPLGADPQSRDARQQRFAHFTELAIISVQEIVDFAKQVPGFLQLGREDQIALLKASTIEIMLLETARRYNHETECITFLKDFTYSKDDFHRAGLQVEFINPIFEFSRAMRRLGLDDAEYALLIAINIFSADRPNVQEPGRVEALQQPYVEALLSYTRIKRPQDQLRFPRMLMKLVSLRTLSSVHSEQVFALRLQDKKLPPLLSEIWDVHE
The experiment can be described thus: Ligand-binding test procedure for human LXRβ (3H T0901317 tracer, flash plates). Particulars: biotinylated hLXRβ from E. coli extract, +4° C. over night, read-out: hLXRB binding assay Mean IC50. As for the experimental part: I. Ligand-Binding Test Procedure for Human LXRβ.
(§1) Buffer: 100 mM KCl, 100 mM TRIS (pH 7.4 at +4° C.), 8.6% glycerol, 0.1 mM PMSF*, 2 mM MTG*, 0.2% CHAPS (* not used in wash buffer)
Receptor source: E. coli extract from cells expressing biotinylated hLXRβ. Extract was made in a similar buffer as above, but with 50 mM TRIS.
(§2) Washed streptavidin and coated flash plates with wash buffer.
(§3) Diluted receptor extract to give Bmax ˜4000 cpm and add to the wells.
(§4) Wrapped the plates in aluminum foil and stored them at +4° C. over night.
(§5) Made a dilution series in DMSO of the test ligands.
(§6) Made a 5 nM solution of the radioactive tracer in buffer.
Mixed 250 μl diluted tracer with 50 of the test ligand from each concentration of the dilution series.
(§7) Washed the receptor-coated flash plates.
(§8) Added 200 μl per well of the ligand/radiolabel mixture to the receptor-coated flash plates.
(§9) Wrapped the plates in aluminum foil and incubate at +4° C. over night.
(§10) Aspirated wells, and wash the flashed plates. Sealed the plate.
(§11) Measured the remaining radioactivity in the plate.

For the next experiment, the target named is T2, human LXRα (Homo sapiens, UniProt Q13133).
T2 construct: biotin (biotinylated); made in house; host or cells: E. coli (crude extract)
T2 sequence (Q13133 1-447): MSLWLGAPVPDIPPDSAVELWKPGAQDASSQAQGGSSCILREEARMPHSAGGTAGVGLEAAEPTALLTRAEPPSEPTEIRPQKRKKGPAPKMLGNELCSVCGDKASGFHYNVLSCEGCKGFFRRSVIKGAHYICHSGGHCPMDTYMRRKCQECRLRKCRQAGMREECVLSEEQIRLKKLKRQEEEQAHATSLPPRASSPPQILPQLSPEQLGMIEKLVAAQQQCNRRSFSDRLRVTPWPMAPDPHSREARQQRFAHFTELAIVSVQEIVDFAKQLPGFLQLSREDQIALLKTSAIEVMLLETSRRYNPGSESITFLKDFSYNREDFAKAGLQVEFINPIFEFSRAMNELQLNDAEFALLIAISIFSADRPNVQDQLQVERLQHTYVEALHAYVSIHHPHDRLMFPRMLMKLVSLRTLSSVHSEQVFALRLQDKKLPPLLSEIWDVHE
The experiment can be described thus: Ligand-binding test procedure for human LXRα (3H T0901317 tracer, flash plates). The note with it: biotinylated hLXRα from E. coli extract, +4° C. over night, read-out: hLXRa binding assay Mean IC50. As for the experimental part:
II. Ligand-Binding Test Procedure for Human LXRα.
as §1
Receptor source: E. coli extract from cells expressing biotinylated hLXRα. Extract was made in a similar buffer as above, but with 50 mM TRIS.
as §2, §3, §4, §5, §6
Mixed 250 μl diluted tracer with 5 μl of the test ligand from each concentration of the dilution series.
as §7, §8, §9, §10, §11

In general, IC50 refers to the concentration that gives 50% inhibition. As to `CCc1nc(-c2cccc(-c3cccc(S(C)(=O)=O)c3)c2)c2cccc(C(F)(F)F)c2n1` [Example 40, 2-ethyl-4-[3′-(methylsulfonyl)biphenyl-3-yl]-8-(trifluoromethyl)quinazoline], the figures for the IC50 at human LXRβ and at human LXRα were 0.097 µM and 1.14 µM, respectively.
Taken in the same sequence, the figures for `CC(C)c1nc(-c2cccc(-c3cccc(S(C)(=O)=O)c3)c2)c2cccc(C(F)(F)F)c2n1` [Example 42, 2-isopropyl-4-[3′-(methylsulfonyl)biphenyl-3-yl]-8-(trifluoromethyl)quinazoline] were 0.452 µM and 3.25 µM.
Taken in the same sequence, the figures for `CCS(=O)(=O)c1cc(F)cc(Oc2ccc(Cl)c(-c3nc(C)nc4c(C(F)(F)F)cccc34)c2)c1` [Example 62, 4-{2-chloro-5-[3-(ethylsulfonyl)-5-fluorophenoxy]phenyl}-2-methyl-8-(trifluoromethyl)quinazoline] were 0.063 µM and 1.43 µM.
Take `O=S(=O)(CCCOC1CCCCO1)c1cccc(Oc2ccc(F)c(-c3ncnc4c(Cl)cccc34)c2)c1` (centres unmarked) [Example 69, 8-chloro-4-[2-fluoro-5-(3-{[3-(tetrahydro-2H-pyran-2-yloxy)propyl]sulfonyl}phenoxy)phenyl]quinazoline]: the IC50 came to 0.095 µM on human LXRβ and 0.265 µM at human LXRα.
Turning to `CS(=O)(=O)c1cccc(Oc2ccc(Cl)c(-c3ncnc4c(Cl)cccc34)c2)c1` [Example 78, 8-chloro-4-{2-chloro-5-[3-(methylsulfonyl)phenoxy]phenyl}quinazoline], the figures for the 50% inhibitory concentration (IC50) at human LXRβ and at human LXRα were 0.026 µM and 0.325 µM, respectively.
For `CS(=O)(=O)c1cccc(Oc2cccc(-c3ncnc4c(Cl)cccc34)c2)c1` [Example 24, 8-chloro-4-{3-[3-(methylsulfonyl)phenoxy]phenyl}quinazoline], the half-maximal inhibitory concentration (IC50) on human LXRβ was determined as 0.295 µM; on human LXRα, 5.32 µM.
Taken in the same sequence, the figures for `CS(=O)(=O)c1cccc(-c2cccc(-c3ncnc4c(C(F)(F)F)cccc34)c2)c1` [Example 27, 4-(3′-Methanesulfonyl-biphenyl-3-yl)-8-trifluoromethyl-quinazoline] were 0.194 µM and 1.67 µM.
Taken in the same sequence, the figures for `CS(=O)(=O)c1cc(F)cc(Oc2cccc(-c3ncnc4c(C(F)(F)F)cccc34)c2)c1` [Example 20, 4-{3-[3-fluoro-5-(methylsulfonyl)phenoxy]phenyl}-8-(trifluoromethyl)quinazoline] were 0.398 µM and 6.33 µM.
Regarding `CC(C)S(=O)(=O)c1cccc(Oc2ccc(F)c(-c3ncnc4c(Cl)cccc34)c2)c1` [Example 68, 8-chloro-4-(2-fluoro-5-{[3-(1-methylethyl)sulfonyl]phenoxy}phenyl)quinazoline], the half-inhibitory concentration (IC50) is 0.015 µM at human LXRβ and 0.597 µM on human LXRα.
Taken in the same sequence, the figures for `O=S(=O)(CCCO)c1cccc(Oc2ccc(F)c(-c3ncnc4c(C(F)(F)F)cccc34)c2)c1` [Example 93, 3-[(3-{4-fluoro-3-[8-(trifluoromethyl)quinazolin-4-yl]phenoxy}phenyl)sulfonyl]propan-1-ol] were 0.047 µM and 0.714 µM.
For the compound `Cc1nc(-c2cc(Oc3cccc(S(C)(=O)=O)c3)ccc2Cl)c2cccc(C(F)(F)F)c2n1` [Example 58, 4-{2-chloro-5-[3-(methylsulfonyl)phenoxy]phenyl}-2-methyl-8-(trifluoromethyl)quinazoline], the IC50 on human LXRβ was determined as 0.02 µM; at human LXRα, 1.36 µM.
Take `Cc1nc(-c2cccc(-c3cccc(S(C)(=O)=O)c3)c2)c2cccc(C(F)(F)F)c2n1` [Example 37, 4-(3′-Methanesulfonyl-biphenyl-3-yl)-2-methyl-8-trifluoromethyl-quinazoline]: the concentration for half-maximal inhibition (IC50) at human LXRβ turned out to be 0.069 µM; at human LXRα, 0.706 µM.
Taken in the same sequence, the figures for `CC(C)CS(=O)(=O)c1cccc(Oc2cccc(-c3ncnc4c(C(F)(F)F)cccc34)c2)c1` [Example 16, 4-{3-[3-(isobutylsulfonyl)phenoxy]phenyl}-8-(trifluoromethyl)quinazoline] were above 1 µM and above 1 µM.
With `Cc1nc(-c2cc(OCc3cccc(S(C)(=O)=O)c3)ccc2Cl)c2cccc(C(F)(F)F)c2n1` [Example 63, 4-(2-chloro-5-{[3-(methylsulfonyl)benzyl]oxy}phenyl)-2-methyl-8-(trifluoromethyl)quinazoline], the results for the IC50 at human LXRβ and at human LXRα were 0.181 µM and 3.38 µM, respectively.
For the compound `CS(=O)(=O)c1cccc(COc2ccc(F)c(-c3ncnc4c(C(F)(F)F)cccc34)c2)c1` [Example 56, 4-(2-fluoro-5-{[3-(methylsulfonyl)benzyl]oxy}phenyl)-8-(trifluoromethyl)quinazoline], the IC50 on human LXRβ turned out to be 0.044 µM; at human LXRα, 0.787 µM.
On to `CS(=O)(=O)c1cc(F)cc(Oc2ccc(F)c(-c3ncnc4c(C(F)(F)F)cccc34)c2)c1` [Example 55, 4-{2-fluoro-5-[3-fluoro-5-(methylsulfonyl)phenoxy]phenyl}-8-(trifluoromethyl)quinazoline], for which the IC50 at human LXRβ was found to be 0.035 µM; at human LXRα it was 0.782 µM.
Taken in the same sequence, the figures for `CS(=O)(=O)c1cccc(Oc2ccc(Cl)c(-c3ncnc4c(C(F)(F)F)cccc34)c2)c1` [Example 49, 4-{2-chloro-5-[3-(methylsulfonyl)phenoxy]phenyl}-8-(trifluoromethyl)quinazoline] were 0.005 µM and 0.177 µM.
With `CS(=O)(=O)c1cc(Cl)cc(Oc2ccc(F)c(-c3ncnc4c(C(F)(F)F)cccc34)c2)c1` [Example 57, 4-{5-[3-chloro-5-(methylsulfonyl)phenoxy]-2-fluorophenyl}-8-(trifluoromethyl)quinazoline], the IC50 at human LXRβ came out at 0.214 µM; on human LXRα, 2.34 µM.
Taken in the same sequence, the figures for `CC(C)CCS(=O)(=O)c1cccc(Oc2cccc(-c3ncnc4c(C(F)(F)F)cccc34)c2)c1` [Example 17, 4-(3-{3-[(3-methylbutyl)sulfonyl]phenoxy}phenyl)-8-(trifluoromethyl)quinazoline] were above 1 µM and above 1 µM.
Taken in the same sequence, the figures for `CCS(=O)(=O)c1cc(F)cc(Oc2ccc(F)c(-c3ncnc4c(Cl)cccc34)c2)c1` [Example 65, 8-chloro-4-{5-[3-(ethylsulfonyl)-5-fluorophenoxy]-2-fluorophenyl}quinazoline] were 0.152 µM and 2.95 µM.
Taken in the same sequence, the figures for `CCS(=O)(=O)c1cccc(Oc2ccc(F)c(-c3ncnc4c(C(F)(F)F)cccc34)c2)c1` [Example 53, 4-{5-[3-(ethylsulfonyl)phenoxy]-2-fluorophenyl}-8-(trifluoromethyl)quinazoline] were 0.008 µM and 0.233 µM.
For the compound `CCCS(=O)(=O)c1ccc(Oc2cccc(-c3ncnc4c(C(F)(F)F)cccc34)c2)cc1` [Example 12, 4-{3-[4-(propylsulfonyl)phenoxy]phenyl}-8-(trifluoromethyl)quinazoline], the 50% inhibitory concentration (IC50) at human LXRβ and on human LXRα was above 1 µM each time.
In the case of `Cc1nc(-c2cccc(Oc3cccc(S(C)(=O)=O)c3)c2)c2cccc(C(F)(F)F)c2n1` [Example 21, 2-methyl-4-{3-[3-(methylsulfonyl)phenoxy]phenyl}-8-(trifluoromethyl)quinazoline], the values for the IC50 at human LXRβ and on human LXRα were 0.433 µM and 13.8 µM, respectively.
With `CCS(=O)(=O)c1cccc(Oc2ccc(Cl)c(-c3nc(C)nc4c(C(F)(F)F)cccc34)c2)c1` [Example 59, 4-{2-chloro-5-[3-(ethylsulfonyl)phenoxy]phenyl}-2-methyl-8-(trifluoromethyl)quinazoline], the IC50 at human LXRβ stood at 0.019 µM; at human LXRα it was 2.37 µM.
For `CS(=O)(=O)c1cccc(-c2cccc(-c3nc(-c4ccccc4)nc4c(C(F)(F)F)cccc34)c2)c1` [Example 43, 4-[3′-(methylsulfonyl)biphenyl-3-yl]-2-phenyl-8-(trifluoromethyl)quinazoline], the half-inhibitory concentration (IC50) at human LXRβ was 0.309 µM; on human LXRα, 20.3 µM.

These data come from patent US20100273816A1, “Quinazoline Compounds” (priority 2007, published 2010).
